Data taken from patent publication US10131652B2, “Pyrimidinyloxy benzene derivatives as herbicides” (E. I. DU PONT DE NEMOURS AND COMPANY, priority 2014, dated 2018).

Assays:
Assay in all cases: Test D pre-/postemergence plant response
Type in all cases: in vivo
[1] = tested on: Italian ryegrass (Lolium multiflorum); conditions: Postemergence; for Plant response rating, Ryegrass, Italian: scale 0 to 100, 0 no effect, 100 complete control
Summary of the method: (§1)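 Visual injury scoring (0–100) at 13 to 15 days in greenhouse. Preemergence sprays on seeded loam/sand; postemergence sprays on 1–4 leaf plants.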

[2] = tested on: barnyardgrass (Echinochloa crus-galli); conditions: Postemergence; for Barnyardgrass plant response rating: scale 0 to 100 (0 no effect, 100 complete control); for Plant response rating, Barnyardgrass: scale 0 to 100, 0 no effect, 100 complete control
Summary of the method: as §1

[3] = tested on: blackgrass (Alopecurus myosuroides); conditions: Postemergence; for Blackgrass plant response rating: scale 0 to 100 (0 no effect, 100 complete control); for Plant response rating, Blackgrass: scale 0 to 100, 0 no effect, 100 complete control
Summary of the method: as §1

[4] = tested on: corn (Zea mays); conditions: Postemergence; for Corn plant response rating: scale 0 to 100 (0 no effect, 100 complete control); for Plant response rating, Corn: scale 0 to 100, 0 no effect, 100 complete control
Summary of the method: as §1

[5] = tested on: galium (catchweed bedstraw, Galium aparine); conditions: Postemergence; for Plant response rating, Galium: scale 0 to 100, 0 no effect, 100 complete control
Summary of the method: as §1

[6] = tested on: giant foxtail (Setaria faberii); conditions: Postemergence; for Foxtail, Giant plant response rating: scale 0 to 100 (0 no effect, 100 complete control); for Plant response rating, Foxtail, Giant: scale 0 to 100, 0 no effect, 100 complete control
Summary of the method: as §1

[7] = tested on: johnsongrass (Sorghum halepense); conditions: Postemergence; for Plant response rating, Johnsongrass: scale 0 to 100, 0 no effect, 100 complete control
Summary of the method: as §1

[8] = tested on: lambsquarters (Chenopodium album); conditions: Postemergence; for Plant response rating, Lambsquarters: scale 0 to 100, 0 no effect, 100 complete control
Summary of the method: as §1

[9] = tested on: large (Lg) crabgrass (Digitaria sanguinalis); conditions: Postemergence; for Crabgrass, Large plant response rating: scale 0 to 100 (0 no effect, 100 complete control); for Plant response rating, Crabgrass, Large: scale 0 to 100, 0 no effect, 100 complete control
Summary of the method: as §1

[10] = tested on: morningglory (Ipomoea coccinea); conditions: Postemergence; for Plant response rating, Morningglory: scale 0 to 100, 0 no effect, 100 complete control
Summary of the method: as §1

[11] = tested on: oilseed rape (Brassica napus); conditions: Postemergence; for Plant response rating, Oilseed Rape: scale 0 to 100, 0 no effect, 100 complete control
Summary of the method: as §1

[12] = tested on: pigweed (Amaranthus retroflexus); conditions: Postemergence; for Plant response rating, Pigweed: scale 0 to 100, 0 no effect, 100 complete control
Summary of the method: as §1

[13] = tested on: ragweed (common ragweed, Ambrosia elatior); conditions: Postemergence; for Plant response rating, Ragweed: scale 0 to 100, 0 no effect, 100 complete control
Summary of the method: as §1

[14] = tested on: soybean (Glycine max); conditions: Postemergence; for Plant response rating, Soybean: scale 0 to 100, 0 no effect, 100 complete control
Summary of the method: as §1

[15] = tested on: velvetleaf (Abutilon theophrasti); conditions: Postemergence; for Plant response rating, Velvetleaf: scale 0 to 100, 0 no effect, 100 complete control
Summary of the method: as §1

[16] = tested on: waterhemp (common waterhemp, Amaranthus rudis); conditions: Postemergence; for Plant response rating, Waterhemp: scale 0 to 100, 0 no effect, 100 complete control
Summary of the method: as §1

[17] = tested on: winter wheat (Triticum aestivum); conditions: Postemergence; for Plant response rating, Wheat: scale 0 to 100, 0 no effect, 100 complete control
Summary of the method: as §1

[18] = tested on: yellow nutsedge (Cyperus esculentus); conditions: Postemergence; for Plant response rating, Nutsedge, Yellow: scale 0 to 100, 0 no effect, 100 complete control
Summary of the method: as §1

[19] = 31 g ai/ha, scale 0 to 100 (0 no effect, 100 complete control)

Compound: Fc1cccc(Oc2ncc(Cl)cn2)c1-c1cc(C2CC2)on1 [Compound 130]
- Ryegrass, Italian plant response rating [1, 19]: 5
- Plant response rating, Ryegrass, Italian ([1]; 62 g ai/ha): 10
- Plant response rating, Ryegrass, Italian ([1]; 125 g ai/ha): 15
- Barnyardgrass plant response rating ([2]; 16 g ai/ha): 10
- Barnyardgrass plant response rating ([2]; 31 g ai/ha): 10
- Plant response rating, Barnyardgrass ([2]; 62 g ai/ha): 10
- Plant response rating, Barnyardgrass ([2]; 125 g ai/ha): 25
- Blackgrass plant response rating ([3]; 16 g ai/ha): 0
- Blackgrass plant response rating ([3]; 31 g ai/ha): 5
- Plant response rating, Blackgrass ([3]; 62 g ai/ha): 20
- Plant response rating, Blackgrass ([3]; 125 g ai/ha): 30
- Corn plant response rating ([4]; 16 g ai/ha): 10
- Corn plant response rating ([4]; 31 g ai/ha): 25
- Plant response rating, Corn ([4]; 62 g ai/ha): 10
- Plant response rating, Corn ([4]; 125 g ai/ha): 10
- Galium plant response rating [5, 19]: 90
- Plant response rating, Galium ([5]; 62 g ai/ha): 95
- Plant response rating, Galium ([5]; 125 g ai/ha): 100
- Foxtail, Giant plant response rating ([6]; 16 g ai/ha): 5
- Foxtail, Giant plant response rating ([6]; 31 g ai/ha): 5
- Plant response rating, Foxtail, Giant ([6]; 62 g ai/ha): 10
- Plant response rating, Foxtail, Giant ([6]; 125 g ai/ha): 25
- Johnsongrass plant response rating [7, 19]: 5
- Plant response rating, Johnsongrass ([7]; 62 g ai/ha): 5
- Plant response rating, Johnsongrass ([7]; 125 g ai/ha): 10
- Lambsquarters plant response rating [8, 19]: 100
- Plant response rating, Lambsquarters ([8]; 62 g ai/ha): 100
- Plant response rating, Lambsquarters ([8]; 125 g ai/ha): 100
- Crabgrass, Large plant response rating ([9]; 16 g ai/ha): 10
- Crabgrass, Large plant response rating ([9]; 31 g ai/ha): 20
- Plant response rating, Crabgrass, Large ([9]; 62 g ai/ha): 20
- Plant response rating, Crabgrass, Large ([9]; 125 g ai/ha): 25
- Morningglory plant response rating [10, 19]: 80
- Plant response rating, Morningglory ([10]; 62 g ai/ha): 85
- Plant response rating, Morningglory ([10]; 125 g ai/ha): 85
- Oilseed Rape plant response rating [11, 19]: 80
- Plant response rating, Oilseed Rape ([11]; 62 g ai/ha): 75
- Plant response rating, Oilseed Rape ([11]; 125 g ai/ha): 95
- Pigweed plant response rating [12, 19]: 95
- Plant response rating, Pigweed ([12]; 62 g ai/ha): 98
- Plant response rating, Pigweed ([12]; 125 g ai/ha): 98
- Ragweed plant response rating [13, 19]: 60
- Plant response rating, Ragweed ([13]; 62 g ai/ha): 75
- Plant response rating, Ragweed ([13]; 125 g ai/ha): 40
- Soybean plant response rating [14, 19]: 55
- Plant response rating, Soybean ([14]; 62 g ai/ha): 98
- Plant response rating, Soybean ([14]; 125 g ai/ha): 95
- Velvetleaf plant response rating [15, 19]: 80
- Plant response rating, Velvetleaf ([15]; 62 g ai/ha): 75
- Plant response rating, Velvetleaf ([15]; 125 g ai/ha): 100
- Waterhemp plant response rating [16, 19]: 85
- Plant response rating, Waterhemp ([16]; 62 g ai/ha): 98
- Plant response rating, Waterhemp ([16]; 125 g ai/ha): 98
- Wheat plant response rating [17, 19]: 5
- Plant response rating, Wheat ([17]; 62 g ai/ha): 30
- Plant response rating, Wheat ([17]; 125 g ai/ha): 35
- Nutsedge, Yellow plant response rating [18, 19]: 5
- Plant response rating, Nutsedge, Yellow ([18]; 62 g ai/ha): 20
- Plant response rating, Nutsedge, Yellow ([18]; 125 g ai/ha): 25
